Laboratory results: US12486278B2, “MASP-2 inhibitors and methods of use” (Omeros Corporation, priority 2019, dated 2025)
Where a name gives a salt, the structure may show the parent alone.

The compounds below were run against T1, MASP-2 (CCP1-CCP2-SP) (Homo sapiens, UniProt O00187) (assay: Enzymatic Assay for MASP-2 (fluorogenic substrate)). Settings: fluorogenic substrate based on C2 cleavage site; room temperature, 20 min; 20 mM HEPES pH 7.4, 140 mM NaCl, 0.1% Tween 20.
T1 construct: 15 μL of Enzyme MASP-2 (CCP1-CCP2-SP) in Assay Buffer
Format: biochemical
How it was run: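 Fluorogenic substrate built on the C2 cleavage site, in 20 mM HEPES pH 7.4, 140 mM NaCl, 0.1% Tween 20, run at room temperature for 20 min before an acetic acid stop. Fluorescence normalised to DMSO-only and no-enzyme controls; IC50 taken as equivalent to Ki, with tight- or slow-binding inhibitors treated separately.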

T1 sequence (O00187 445-686 limits assumed): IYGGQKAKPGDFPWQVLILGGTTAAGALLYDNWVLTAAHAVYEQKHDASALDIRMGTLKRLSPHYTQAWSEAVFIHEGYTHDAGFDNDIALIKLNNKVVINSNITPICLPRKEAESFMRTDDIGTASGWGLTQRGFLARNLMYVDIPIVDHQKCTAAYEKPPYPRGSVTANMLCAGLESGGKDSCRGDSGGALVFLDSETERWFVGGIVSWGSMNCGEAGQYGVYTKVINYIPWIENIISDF
T1 sequence (O00187 298-444 partner limits assumed): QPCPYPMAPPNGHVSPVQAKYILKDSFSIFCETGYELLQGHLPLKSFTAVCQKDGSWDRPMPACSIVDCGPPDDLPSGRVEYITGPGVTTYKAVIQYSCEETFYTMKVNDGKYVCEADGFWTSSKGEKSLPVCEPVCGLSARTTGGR

Row | SMILES | Ki [nM]
1 | C[C@H](NC(=O)[C@H]1C[C@@H](c2ccccc2)CCN1CCP(=O)(O)O)C(=O)NCc1cc2cnccc2[nH]1 [Compound I-39, (2-((2R,4S)-2-(((S)-1-(((1H-Pyrrolo[3,2-C]Pyridin-2-Yl)Methyl)Amino)-1-Oxopropan-2-Yl)Carbamoyl)-4-Phenylpiperidin-1-Yl)Ethyl)Phosphonic Acid Di-Trifluoroacetate] | < 500
2 | C[C@H](NC(=O)[C@H]1C[C@H](c2ccccc2)CN1)C(=O)NCc1nc2c(Cl)cccc2s1 [Compound I-4, (2R,4R)—N—((S)-1-(((4-Chlorobenzo[D]Thiazol-2-Yl)Methyl)Amino)-1-Oxopropan-2-Yl)-4-Phenylpyrrolidine-2-Carboxamide Trifluoroacetate] | 500 to 2500
3 | C[C@H](NC(=O)[C@H]1C[C@H](Cc2cc(Br)c(Cl)s2)CN1)C(=O)NCc1cnc2c(c1)c(Cl)cn2C [Compound I-19, (2R,4R)-4-((4-Bromo-5-Chlorothiophen-2-Yl)Methyl)-N—((S)-1-(((3-Chloro-1-Methyl-1H-Pyrrolo[2,3-B]Pyridin-5-Yl)Methyl)Amino)-1-Oxopropan-2-Yl)Pyrrolidine-2-Carboxamide Trifluoroacetate] | < 500
4 | C[C@H](NC(=O)[C@H]1C[C@H](Cc2ccc(F)cc2)CN1CCC(=O)O)C(=O)NCc1ccc(C(=N)N)cc1 [Compound I-37, 3-((2R,4S)-2-(((S)-1-((4-Carbamimidoylbenzyl)Amino)-1-Oxopropan-2-Yl)Carbamoyl)-4-(4-Fluorobenzyl)Pyrrolidin-1-Yl)Propanoic Acid Di-Trifluoroacetate] | < 500
5 | Cc1nc(N)ccc1CNC(=O)[C@H]1CC(F)(F)CN1C(=O)[C@@H]1C[C@@H](Cc2ccc(Br)cc2)CN1 [Compound I-61, (R)—N-((6-Amino-2-Methylpyridin-3-Yl)Methyl)-1-((2S,4R)-4-(4-Bromobenzyl)Pyrrolidine-2-Carbonyl)-4,4-Difluoropyrrolidine-2-Carboxamide Dihydrochloride] | < 500
6 | Cc1nc(N)ccc1CNC(=O)[C@H](C)NC(=O)[C@H]1C[C@H](Cc2ccc(F)c(Cl)c2F)CN1 [Compound I-88, (2R,4S)—N—((S)-1-(((6-Amino-2-Methylpyridin-3-Yl)Methyl)Amino)-1-Oxopropan-2-Yl)-4-(3-Chloro-2,4-Difluorobenzyl)Pyrrolidine-2-Carboxamide Dihydrochloride] | < 500
